PubChem BioAssay AID330 (DTP/NCI, 2004)
“And” between values parts separate entries of the source, which are not always exact repeats. Equal values may be shown once. Toxic doses and inconclusive results are not listed. The calls were made as follows: active = survival T/C of 150% or more; inactive = T/C below 125% in these data.

System: P388 leukemia ip, CD2F1 mice, survival T/C
Assay: NCI In Vivo Anticancer Drug Screen. Data for tumor model P388 Leukemia (intraperitoneal) in CD2F1 (CDF1) mice
Conditions: endpoint: median survival time, higher = longer survival
Summary of the method: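 Mice carrying the transplanted tumor received test compound or vehicle. Survival was recorded in each group, and the value is the treated-group measurement divided by that of the vehicle-treated control group.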

[1] = dose: 12.5 mg/kg/injection, schedule: Q01DX005 (ip), vehicle: saline with Tween-80
[2] = dose: 25.0 mg/kg/injection, schedule: Q01DX005 (ip), vehicle: saline with Tween-80
[3] = dose: 100.0 mg/kg/injection, schedule: Q01DX005 (ip), vehicle: saline with Tween-80
[4] = dose: 200.0 mg/kg/injection, schedule: Q01DX005 (ip), vehicle: saline with Tween-80
[5] = dose: 12.5 mg/kg/injection, schedule: Q01DX009 (ip), vehicle: saline
[6] = dose: 25.0 mg/kg/injection, schedule: Q01DX009 (ip), vehicle: saline
[7] = dose: 50.0 mg/kg/injection, schedule: Q01DX009 (ip), vehicle: saline
[8] = dose: 50.0 mg/kg/injection, schedule: Q01DX005 (ip), vehicle: saline with Tween-80
[9] = dose: 25.0 mg/kg/injection, schedule: Q01DX009 (ip), vehicle: saline with Tween-80
[10] = dose: 50.0 mg/kg/injection, schedule: Q01DX009 (ip), vehicle: saline with Tween-80
[11] = dose: 100.0 mg/kg/injection, schedule: Q01DX009 (ip), vehicle: saline with Tween-80
[12] = dose: 200.0 mg/kg/injection, schedule: Q01DX009 (ip), vehicle: saline with Tween-80
[13] = dose: 12.5 mg/kg/injection, schedule: Q01DX009 (ip), vehicle: saline with Tween-80
[14] = dose: 50.0 mg/kg/injection, schedule: Q01DX009 (ip), vehicle: Klucel (hydroxypropylcellulose) (HPC)
[15] = dose: 100.0 mg/kg/injection, schedule: Q01DX009 (ip), vehicle: Klucel (hydroxypropylcellulose) (HPC)
[16] = dose: 100.0 mg/kg/injection, schedule: Q01DX001 (ip), vehicle: saline with Tween-80
[17] = dose: 200.0 mg/kg/injection, schedule: Q01DX001 (ip), vehicle: saline with Tween-80
[18] = dose: 100.0 mg/kg/injection, schedule: Q04DX003 (ip), vehicle: saline
[19] = dose: 200.0 mg/kg/injection, schedule: Q04DX003 (ip), vehicle: saline
[20] = dose: 400.0 mg/kg/injection, schedule: Q04DX003 (ip), vehicle: saline

Measured: T/C

CCOC(=O)C1C2(C(C)=O)C(C)=Nc3c(C#N)cnn3C12C(=O)OCC (stereo not given)
inactive: dose: 6.25 mg/kg/injection, schedule: Q01DX005 (ip), vehicle: saline with Tween-80 105 % of control | [1] 100 % of control | [2] 104 % of control | [3] 92 % of control | [4] 91 % of control

CN(C)N=Nc1ccc(C(N)=O)cc1
inactive: [5] 101 % of control and 103 % of control and 93 % of control | [6] 98 % of control and 99 % of control and 100 % of control | [7] 98 % of control and 107 % of control and 91 % of control | dose: 100.0 mg/kg/injection, schedule: Q01DX009 (ip), vehicle: saline 111 % of control and 96 % of control

O=C(CBr)NN=C(c1ccccc1)c1ccccc1
inactive: dose: 29.0 mg/kg/injection, schedule: Q01DX009 (ip), vehicle: saline with Tween-80 104 % of control | dose: 58.0 mg/kg/injection, schedule: Q01DX009 (ip), vehicle: saline with Tween-80 101 % of control | dose: 116.0 mg/kg/injection, schedule: Q01DX009 (ip), vehicle: saline with Tween-80 110 % of control

c1ccc(C(SN=C2CCCCC2)(c2ccccc2)c2ccccc2)cc1
inactive: [8] 100 % of control | [3] 91 % of control | [4] 90 % of control

CCCCCCCCCCCCCCCC[As](CCCCCCCCCCCCCCCC)SCC1OC(OC(C)=O)C(OC(C)=O)C(OC(C)=O)C1OC(C)=O (stereo not given)
inactive: [9] 114 % of control | [10] 109 % of control and 119 % of control | [11] 117 % of control | [12] 119 % of control

CCCC(OC(C)=O)c1coc(C)c1 (stereo not given)
inactive: dose: 100.0 mg/kg/injection, schedule: Q01DX001 (ip), vehicle: saline 104 % of control | dose: 200.0 mg/kg/injection, schedule: Q01DX001 (ip), vehicle: saline 100 % of control | dose: 400.0 mg/kg/injection, schedule: Q01DX001 (ip), vehicle: saline 104 % of control

COc1ccc(-c2c(N3CCOCC3)oc3cc(N4CCOCC4)c(O)cc23)cc1
inactive: [2] 100 % of control | [8] 98 % of control | [3] 100 % of control | [4] 91 % of control

Cc1cc(=O)c2c(C)nn(-c3ccccc3)c2[nH]1
inactive: dose: 15.0 mg/kg/injection, schedule: Q01DX005 (ip), vehicle: Klucel (hydroxypropylcellulose) (HPC) 98 % of control | dose: 30.0 mg/kg/injection, schedule: Q01DX005 (ip), vehicle: Klucel (hydroxypropylcellulose) (HPC) 100 % of control | dose: 60.0 mg/kg/injection, schedule: Q01DX005 (ip), vehicle: Klucel (hydroxypropylcellulose) (HPC) 94 % of control | dose: 240.0 mg/kg/injection, schedule: Q01DX005 (ip), vehicle: Klucel (hydroxypropylcellulose) (HPC) 93 % of control

N#Cc1ccc(N=Cc2ccc(C=Nc3ccc(C#N)c(C#N)c3)cc2)cc1C#N
inactive: [13] 93 % of control | [9] 104 % of control | [10] 88 % of control | [11] 87 % of control | [12] 97 % of control

CCCCCCCCN(C)N=Nc1ccccc1C(=O)O
inactive: dose: 12.5 mg/kg/injection, schedule: Q01DX009 (ip), vehicle: Klucel (hydroxypropylcellulose) (HPC) 105 % of control | dose: 25.0 mg/kg/injection, schedule: Q01DX009 (ip), vehicle: Klucel (hydroxypropylcellulose) (HPC) 118 % of control | [14] 115 % of control | [15] 108 % of control

Cc1c(C(=N)C(C#N)C#N)c(=N)oc2c1ccc1ccccc12
inactive: dose: 6.25 mg/kg/injection, schedule: Q01DX009 (ip), vehicle: saline with Tween-80 94 % of control and 97 % of control | [13] 86 % of control and 96 % of control | [9] 115 % of control and 87 % of control and 95 % of control | [10] 123 % of control and 94 % of control (2×) | [11] 100 % of control and 92 % of control | [12] 116 % of control

CC1CC=CC(=O)CC1 (stereo not given)
inactive: [14] 112 % of control | [15] 117 % of control

Cc1cc(NCCCN(C)C)c2cc3ccc4cccc5ccc(c2n1)c3c45
inactive: [10] 109 % of control | [11] 108 % of control

C[Si](C)(C)CSCC#N
inactive: [16] 98 % of control | [17] 107 % of control

O=C(O)CC1C(=O)OC2C3COC(=O)c4cc(O)c(O)c(O)c4-c4c(cc(O)c(O)c4O)C(=O)OC2C(OC(=O)c2cc(O)c(O)c4c2C1C(O)C(=O)O4)C(OC(=O)c1cc(O)c(O)c(O)c1)O3 (stereo not given)
inactive: dose: 0.78 mg/kg/injection, schedule: Q01DX009 (ip), vehicle: saline 99 % of control | dose: 1.56 mg/kg/injection, schedule: Q01DX009 (ip), vehicle: saline 102 % of control | dose: 3.12 mg/kg/injection, schedule: Q01DX009 (ip), vehicle: saline 98 % of control | dose: 6.25 mg/kg/injection, schedule: Q01DX009 (ip), vehicle: saline 100 % of control and 121 % of control | [5] 111 % of control and 93 % of control | [6] 107 % of control and 97 % of control | [7] 116 % of control and 97 % of control

CC1CCCN(CC(O)CN2C[C@@H](C)N(CC(O)CN3CCCC(C)C3)[C@H](C)C2)C1 (stereo not given in full)
inactive: [1] 100 % of control | [2] 100 % of control | [8] 100 % of control and 112 % of control

c1cnc2c3cnc4sccc4c3nn2c1
inactive: dose: 100.0 mg/kg/injection, schedule: Q04DX002 (ip), vehicle: saline with Tween-80 93 % of control | dose: 200.0 mg/kg/injection, schedule: Q04DX002 (ip), vehicle: saline with Tween-80 88 % of control | dose: 400.0 mg/kg/injection, schedule: Q04DX002 (ip), vehicle: saline with Tween-80 93 % of control

CCc1c(Cc2[nH]c(C=O)c(C)c2CC)[nH]c(C=O)c1C
inactive: [8] 100 % of control | [3] 100 % of control | [4] 100 % of control

CC(C)(C)C(=O)Nc1ccccc1-c1ccccc1
inactive: [18] 93 % of control | [19] 92 % of control | [20] 94 % of control

COc1cc2ccnc(/C=N\NC(N)=S)c2cc1OC
inactive: [9] 98 % of control | [10] 101 % of control | [11] 107 % of control | [12] 118 % of control

COc1ccc2c(O)c3[n+](cc2c1OC)CCc1cc2c(cc1-3)OCO2
inactive: dose: 60.0 mg/kg/injection, schedule: Q01DX005 (ip), vehicle: saline with Tween-80 99 % of control | dose: 120.0 mg/kg/injection, schedule: Q01DX005 (ip), vehicle: saline with Tween-80 104 % of control | dose: 240.0 mg/kg/injection, schedule: Q01DX005 (ip), vehicle: saline with Tween-80 101 % of control

COc1ccc(CC(CO)NC(=O)c2ccccc2)cc1 (stereo not given)
inactive: dose: 100.0 mg/kg/injection, schedule: Q04DX002 (ip), vehicle: Klucel (hydroxypropylcellulose) (HPC) 101 % of control | dose: 200.0 mg/kg/injection, schedule: Q04DX002 (ip), vehicle: Klucel (hydroxypropylcellulose) (HPC) 108 % of control | dose: 400.0 mg/kg/injection, schedule: Q04DX002 (ip), vehicle: Klucel (hydroxypropylcellulose) (HPC) 94 % of control

Cc1c(O)c(=O)ccn1C1OC(CO)C(O)C1O (stereo not given)
inactive: dose: 25.0 mg/kg/injection, schedule: Q01DX005 (ip), vehicle: saline 99 % of control | dose: 50.0 mg/kg/injection, schedule: Q01DX005 (ip), vehicle: saline 104 % of control | dose: 100.0 mg/kg/injection, schedule: Q01DX005 (ip), vehicle: saline 99 % of control | dose: 200.0 mg/kg/injection, schedule: Q01DX005 (ip), vehicle: saline 104 % of control | dose: 400.0 mg/kg/injection, schedule: Q01DX005 (ip), vehicle: saline 105 % of control

CCOc1ccc(N=Nc2c(O)n(-c3ccc(Br)cc3)c(=S)n(-c3ccccc3)c2=O)cc1
inactive: [16] 107 % of control | [17] 98 % of control | dose: 400.0 mg/kg/injection, schedule: Q01DX001 (ip), vehicle: saline with Tween-80 100 % of control

[Cl][Pd][Cl].[NH-]C(C(=O)O)c1ccccc1.[NH-]C(C(=O)O)c1ccccc1 (stereo not given)
inactive: [18] 103 % of control | [19] 97 % of control | [20] 109 % of control

COc1cc(OC)c(N=Cc2ccc(C=Nc3cc(Cl)c(OC)cc3OC)cc2)cc1Cl
inactive: [14] 100 % of control | [15] 89 % of control | dose: 200.0 mg/kg/injection, schedule: Q01DX009 (ip), vehicle: Klucel (hydroxypropylcellulose) (HPC) 86 % of control

COc1ccc(C(=O)CC[N+](C)(C)C)cc1
inactive: [5] 106 % of control | [6] 101 % of control

CCCCCC(C1SC(=S)NC1=O)C1SC(=S)NC1=O (stereo not given)
inactive: [8] 90 % of control | [3] 106 % of control

CCCCCCCCCCCCNNC(=O)[C@@H]1[C@H](c2cc(OC)c(OC)c(OC)c2)c2cc3c(cc2[C@H](O)[C@H]1CO)OCO3
inactive: [8] 117 % of control and 124 % of control | [3] 122 % of control
